Numbered stars: 1 amine (or outer) side, 2 acyl side, 3 side chain; on linkers, the order of the positions; unused ones are H or OH. Bridge positions count the residues as written; N and C are the ends. Square brackets hold non-standard residues; d marks the D form. Peptide text beside a SMILES is read from it. * marks the point of attachment. pTerphenylCO(4''-OnC5H11) = CCCCCOc1ccc(-c2ccc(-c3ccc(C(=O)*)cc3)cc2)cc1; Orn(4R-OH,5R-OH) = O=C([C@H](C[C@@H](O)[C@@H](O)N[*:3])N[*:1])[*:2]; hTyr(3S-OH,4S-OH) = N[C@H](C(=O)O)[C@H](O)[C@@H](O)c1ccc(O)cc1; Pro(3S-OH,4S-Me) = C[C@H]1CN[C@H](C(=O)O)[C@H]1O; Hyp = O=C(O)[C@@H]1C[C@@H](O)CN1
Tests used:
[1] = test system: C. albicans strain SC5314; assay: Checkerboard synergy test (FICI) of 2H with common antifungals; format: cell-based, Candida albicans; settings: combination with 2H; SC5314, YNB medium, 37 °C, 24 h; synergy FICI ≤ 0.5, additive or indifferent > 0.5 and < 2, antagonistic > 2
Method: The assay was carried out as published previously. SC5314, the most widely-used wild-type C. albicans strain, was obtained from Dr. Ronda Rolfes (Georgetown University). An aliquot of SC5314 was thawed and grown overnight in Sabouraud medium at 30 °C. After harvesting by centrifugation at 1200× g for 5 min, the cells were washed twice using PBS. Afterward, the inoculum was prepared in the YNB medium, a yeast synthetic medium, with an OD600 of 0.0005 (corresponding to 5 × 10^3–1 × 10^4 colony forming units (CFU)). Five common antifungals (Amphotericin B, Anidulafungin, Flucytosine, Clotrimazole, and Itraconazole) were prepared in either DMSO or ddH2O according to the manufacturer’s instructions. The antifungal drugs were serially diluted in DMSO or ddH2O and added to wells containing 100 µL inoculum in sterile 96-well culture plates. In addition, serial dilutions of 2H were added in combination with the above antifungals. Wells without any compounds were used as growth controls. Incubation at 37 °C followed, and optical density measurements at 600 nm were taken after 24 h with wells containing only medium as blanks. The fractional inhibitory concentration index (FICI) was calculated to test the synergistic effect between each of these common antifungals with 2H according to the published protocols.
A checkerboard (or chequerboard) assay was carried out to assess the fractional inhibitory concentration index (FICI). The widely-used wild-type C. albicans strain SC5314 was used. […] More antifungals may need to be examined to find potential synergistic effects with 2H.
Figure 1 Synergy testing between 2H and several common antifungal drugs (A–E); Checkerboard analysis of antifungal activity for combination of 2H and several common antifungals. The heat-map plots of relative growth (calculated by setting the growth without compounds as 100%) were presented: (A) Amphotericin B; (B) Anidulafungin; (C) Flucytosine; (D) Clotrimazole; (E) Itraconazole. Color scale for relative growth is provided on the right. (F) The Fractional Inhibitory Concentration Index (FICI) for the combination of 2H and several common antifungals. The FICI is interpreted as follows: a synergistic effect when FICI ≤ 0.5; an additive or indifferent effect when FICI > 0.5 and <2; an antagonistic effect when FICI > 2. TEXT PRINTED IN THE PICTURE: (F) Amphotericin B: FICI: 1.077±0.060 | (F) Anidulafungin: FICI: 1.108±0.084 | (F) Clotrimazole: FICI: 0.741±0.092 | (F) Flucytosine: FICI: 1.261±0.075 | (F) Itraconazole: FICI: 0.862±0.013

[2] = test system: C. neoformans Type Strain H99; assay: Antifungal susceptibility (growth) test, MIC90; format: cell-based, Cryptococcus neoformans; settings: H99, YNB medium, 37 °C, 48 h
Method: (§1) We followed the Clinical and Laboratory Standards Institute for yeasts (CLSI M27 [80]) and our previously published protocol for the determination of MIC and MFC [33]. The C. neoformans Type Strain H99 was obtained from the laboratory of Dr. Joseph Heitman (Duke University). After growing in Sabouraud medium, this strain was resuspended in 35% glycerol, aliquoted, flash-frozen in liquid nitrogen, and stored in a −80 °C freezer.
(§2) For each experiment, a 100 µL frozen aliquot of H99 was thawed and diluted into 5 mL Sabouraud medium. After being grown at 30 °C overnight, the culture was pelleted and washed twice using PBS at room temperature. The inoculum was prepared using the YNB medium, a yeast synthetic medium, with 5 × 10^3–1 × 10^4 colony forming units (CFU) (corresponding to an OD600 of 0.0005). Sterile 96-well culture plates were used for growth tests. After aliquoting 100 µL of the inoculum into each well, serial dilutions of 2H or fluconazole were added to the wells and mixed well by pipetting up and down. After shaking at 37 °C for 48 h, growth was measured by absorbance at 600 nm using a spectrophotometric plate reader. Wells with only medium were used as blanks and wells with only inoculum were used as growth controls. […]
(§3) Figure 3 2H inhibits the growth of Cryptococcus neoformans and is fungicidal. […] (B) The MIC90 and MFC of 2H were determined on C. neoformans strain H99. […]

[3] = test system: C. neoformans Type Strain H99; assay: Viability test, minimum fungicidal concentration (MFC); format: cell-based, Cryptococcus neoformans
Method: as §1, §2, §3

[4] = test system: C. albicans strain SC5314; set-up: method as in PMID 37173314; settings: combination with 2H; previous test; cited from earlier work

Row | Compound | Fractional Inhibitory Concentration Index (FICI) [1] | also measured
1 | CCC(C)n1ncn(-c2ccc(N3CCN(c4ccc(OCC5COC(Cn6cncn6)(c6ccc(Cl)cc6Cl)O5)cc4)CC3)cc2)c1=O (centres unmarked) [Itraconazole] | 0.862±0.013 | –
2 | OC(Cn1cncn1)(Cn1cncn1)c1ccc(F)cc1F [Fluconazole] | – | MIC90 (minimum inhibitory concentration for 90% inhibition) [2]: 16 µM; Fungicidal or fungistatic [3]: fungistatic; Synergistic effect between 2H and fluconazole [4]: no apparent synergistic effect
3 | Clc1ccccc1C(c1ccccc1)(c1ccccc1)n1ccnc1 [Clotrimazole] | 0.741±0.092 | –
4 | C[C@@H]1[C@H](O)[C@@H](C)/C=C/C=C/C=C/C=C/C=C/C=C/C=C/[C@H](O[C@@H]2O[C@H](C)[C@@H](O)[C@H](N)[C@@H]2O)C[C@@H]2O[C@](O)(C[C@@H](O)C[C@@H](O)[C@H](O)CC[C@@H](O)C[C@@H](O)CC(=O)O[C@H]1C)C[C@H](O)[C@H]2C(=O)O [Amphotericin B] | 1.077±0.060 | –
5 | Nc1[nH]c(=O)ncc1F [Flucytosine] | 1.261±0.075 | –
6 | CCCCCOc1ccc(-c2ccc(-c3ccc(C(=O)N[C@H]4C[C@@H](O)[C@@H](O)NC(=O)[C@@H]5[C@@H](O)[C@@H](C)CN5C(=O)[C@H]([C@@H](C)O)NC(=O)[C@H]([C@H](O)[C@@H](O)c5ccc(O)cc5)NC(=O)[C@@H]5C[C@@H](O)CN5C(=O)[C@H]([C@@H](C)O)NC4=O)cc3)cc2)cc1 [Anidulafungin] ({pTerphenylCO(4''-OnC5H11)}-[Orn(4R-OH,5R-OH)]T[Hyp][hTyr(3S-OH,4S-OH)]T[Pro(3S-OH,4S-Me)]; lactam 1-C) | 1.108±0.084 | –

Reference: article PMC11595998, “Characterization of a New Hsp110 Inhibitor as a Potential Antifungal” (Journal of Fungi, 2024)
